According to patent publication US20050176811A1, “Vitamin combination for providing protection during the chemotherapy and/or radio-therapy of malignant tumours” (priority 2002, published 2005):

Experiments:
[1] = system: stomach cancer at stage IV; parameters: concentration or dose not given beside the values; settings: only 5-Fu, control group from older literature; cited from earlier work
[2] = system: white raceless male and female rats; experiment: Whole body gamma irradiation of rats at 11.4 Gy, comparison with mexamine; format: in vivo; settings: radiation dose 11.4 Gy, agent 24 h before irradiation
Experimental: In order to compare the radiation protection according to the invention with the effect of conventional radiation protective agents white raceless male and female rats weighing from 150 to 180 g (age: 3 months) was subjected to whole body gamma irradiation at a dose of 11.4 Gy, the animals being protected according to the invention by administering the vitamin combination at the above-mentioned dose 24 hours before the irradiation (group I). […] A third group of rats was irradiation without administering a radiation protective agent (group III).

sarcoma 45 = settings: rat, in vivo

Compound: O=c1[nH]cc(F)c(=O)[nH]1 [5-Fu, 5-Fluorouracil]
- survival rate (%) after 3 months [1]: 86.7%
- survival rate (%) after 6 months [1]: 66.7%
- survival rate (%) after 9 months [1]: 40.0%
- survival rate (%) after 12 months [1]: 20.0%
- survival rate (%) after 18 months [1]: 13.7%
- survival rate (%) after 22 months [1]: 0%

Compound: COc1ccc2[nH]cc(CCN)c2c1 [mexamine]
- average life-span [2]: 8.2 ± 4 days
- days at which 50% of animals are dead [2]: 50/8 days
- days at which 100% of animals are dead [2]: 100/13 days

Compound: tocopherol [vitamin E]
- distribution of vitamin E (tocopherol contents in organs) (sarcoma 45): accumulation of this vitamin in the tumour
